Assay results reported in PubChem BioAssay AID1963834 (Molecular Pharmacology Branch, DTP, NCI, 2024).

System: 873145-292-R-J1-PDC complex spheroid viability
Experiment: Anticancer human tumor 873145-292-R-J1-PDC patient-derived renal clear cell carcinoma cell line growth inhibition [POLQ]
Conditions: for IC50: curve of first compound; for viability, T/C: stronger effect = lower value
Method in brief: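 Growth inhibition in 3D: complex spheroids (tumor PDC, HUVEC, MSC) treated with POLQ inhibitor combinations; where Cmax unknown, highest tested concentration 10 microM, except SN-38 at 1 microM.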

[1] = second compound 0.0316 µM, first compound 0.00316 µM
[2] = second compound 0.0316 µM, first compound 0.01 µM
[3] = second compound 0.0316 µM, first compound 0.0316 µM
[4] = second compound 0.0316 µM, first compound 0.1 µM
[5] = second compound 0.0316 µM, first compound 0.316 µM
[6] = second compound 0.0316 µM, first compound 1 µM
[7] = second compound 0.1 µM, first compound 0.00316 µM
[8] = second compound 0.1 µM, first compound 0.01 µM
[9] = second compound 0.1 µM, first compound 0.0316 µM
[10] = second compound 0.1 µM, first compound 0.1 µM
[11] = second compound 0.1 µM, first compound 0.316 µM
[12] = second compound 0.1 µM, first compound 1 µM
[13] = second compound 0.316 µM, first compound 0.00316 µM
[14] = second compound 0.316 µM, first compound 0.01 µM
[15] = second compound 0.316 µM, first compound 0.0316 µM
[16] = second compound 0.316 µM, first compound 0.1 µM
[17] = second compound 0.316 µM, first compound 0.316 µM
[18] = second compound 0.316 µM, first compound 1 µM
[19] = second compound 1 µM, first compound 0.00316 µM
[20] = second compound 1 µM, first compound 0.01 µM
[21] = second compound 1 µM, first compound 0.0316 µM
[22] = second compound 1 µM, first compound 0.1 µM
[23] = second compound 1 µM, first compound 0.316 µM
[24] = second compound 1 µM, first compound 1 µM
[25] = second compound 3.16 µM, first compound 0.00316 µM
[26] = second compound 3.16 µM, first compound 0.01 µM
[27] = second compound 3.16 µM, first compound 0.0316 µM
[28] = second compound 3.16 µM, first compound 0.1 µM
[29] = second compound 3.16 µM, first compound 0.316 µM
[30] = second compound 3.16 µM, first compound 1 µM
[31] = second compound 10 µM, first compound 0.00316 µM
[32] = second compound 10 µM, first compound 0.01 µM
[33] = second compound 10 µM, first compound 0.0316 µM
[34] = second compound 10 µM, first compound 0.1 µM
[35] = second compound 10 µM, first compound 0.316 µM
[36] = second compound 10 µM, first compound 1 µM
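Also: spheroids exposed to compounds for 7 days before viability readout.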
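For viability, T/C in this document: luminescence signal used as surrogate for viable cell content; 100% = DMSO vehicle control viability.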

For `COc1cccc(OCCCN)c1-c1cc(Nc2cnc(C#N)cn2)n[nH]1` + Nc1ccc(C#CCN(C(=O)Cc2ncc(C(F)(F)F)cc2C(F)(F)F)c2ccc(F)cc2)nn1, the IC50 (second compound 0.0316 µM) was > 1000 nM, the IC50 (second compound 0.1 µM) was > 1000 nM and the IC50 (second compound 0.316 µM) was > 1000 nM. For the same compound, the IC50 (second compound 1 µM) was > 1000 nM, the IC50 (second compound 3.16 µM) was > 1000 nM and the IC50 (second compound 10 µM) was > 1000 nM. It also gave a viability, T/C [1] of 94%, a viability, T/C [2] of 94.2% and a viability, T/C [3] of 76.3%. It also gave a viability, T/C [4] of 66.6%, a viability, T/C [5] of 74.3% and a viability, T/C [6] of 73.2%. It also gave a viability, T/C [7] of 91%, a viability, T/C [8] of 98.2% and a viability, T/C [9] of 74.8%. It also gave a viability, T/C [10] of 71.8%, a viability, T/C [11] of 65.4% and a viability, T/C [12] of 71.1%. It also gave a viability, T/C [13] of 95.5%, a viability, T/C [14] of 97% and a viability, T/C [15] of 67.7%. The viability, T/C [16] was 66.6%, the viability, T/C [17] was 79.9% and the viability, T/C [18] was 77.8%. For the same compound, the viability, T/C [19] was 96.3%, the viability, T/C [20] was 78.4% and the viability, T/C [21] was 73.8%. For the same compound, the viability, T/C [22] was 70.8%, the viability, T/C [23] was 83.5% and the viability, T/C [24] was 73.3%. The viability, T/C [25] was 90.3%, the viability, T/C [26] was 88.9% and the viability, T/C [27] was 68.9%. The viability, T/C [28] was 67.1%, the viability, T/C [29] was 65.2% and the viability, T/C [30] was 83.9%. It also gave a viability, T/C [31] of 103%, a viability, T/C [32] of 90.3% and a viability, T/C [33] of 74.3%. For the same compound, the viability, T/C [34] was 68.5%, the viability, T/C [35] was 69.1% and the viability, T/C [36] was 95.5%.

With `Cn1ncnc1[C@H]1c2n[nH]c(=O)c3cc(F)cc(c23)N[C@@H]1c1ccc(F)cc1` + Nc1ccc(C#CCN(C(=O)Cc2ncc(C(F)(F)F)cc2C(F)(F)F)c2ccc(F)cc2)nn1 the IC50 (second compound 0.0316 µM) was > 100 nM, the IC50 (second compound 0.1 µM) was > 100 nM and the IC50 (second compound 0.316 µM) was > 100 nM. For the same compound, the IC50 (second compound 1 µM) was > 100 nM, the IC50 (second compound 3.16 µM) was > 100 nM and the IC50 (second compound 10 µM) was > 100 nM. The viability, T/C (second compound 0.0316 µM, first compound 0.000316 µM) was 124%, the viability, T/C (second compound 0.0316 µM, first compound 0.001 µM) was 103% and the viability, T/C [1] was 90.9%. It also gave a viability, T/C [2] of 99.3%, a viability, T/C [3] of 106% and a viability, T/C [4] of 104%. It also gave a viability, T/C (second compound 0.1 µM, first compound 0.000316 µM) of 105%, a viability, T/C (second compound 0.1 µM, first compound 0.001 µM) of 99.3% and a viability, T/C [7] of 107%. It also gave a viability, T/C [8] of 91.8%, a viability, T/C [9] of 102% and a viability, T/C [10] of 99.6%. It also gave a viability, T/C (second compound 0.316 µM, first compound 0.000316 µM) of 97%, a viability, T/C (second compound 0.316 µM, first compound 0.001 µM) of 108% and a viability, T/C [13] of 99.2%. For the same compound, the viability, T/C [14] was 96.7%, the viability, T/C [15] was 98.8% and the viability, T/C [16] was 96.8%. The viability, T/C (second compound 1 µM, first compound 0.000316 µM) was 94.9%, the viability, T/C (second compound 1 µM, first compound 0.001 µM) was 100% and the viability, T/C [19] was 96.1%. It also gave a viability, T/C [20] of 97.1%, a viability, T/C [21] of 95.9% and a viability, T/C [22] of 96.3%. For the same compound, the viability, T/C (second compound 3.16 µM, first compound 0.000316 µM) was 92.1%, the viability, T/C (second compound 3.16 µM, first compound 0.001 µM) was 108% and the viability, T/C [25] was 97.2%. For the same compound, the viability, T/C [26] was 95.3%, the viability, T/C [27] was 95.8% and the viability, T/C [28] was 95.8%. For the same compound, the viability, T/C (second compound 10 µM, first compound 0.000316 µM) was 107%, the viability, T/C (second compound 10 µM, first compound 0.001 µM) was 110% and the viability, T/C [31] was 108%. For the same compound, the viability, T/C [32] was 117%, the viability, T/C [33] was 107% and the viability, T/C [34] was 103%.

`Nc1ccn(C2OC(CO)C(O)C2(F)F)c(=O)n1` (stereo unspecified) + Nc1ccc(C#CCN(C(=O)Cc2ncc(C(F)(F)F)cc2C(F)(F)F)c2ccc(F)cc2)nn1 was tested, and the IC50 (second compound 0.0316 µM) was > 10000 nM, the IC50 (second compound 0.1 µM) was > 10000 nM and the IC50 (second compound 0.316 µM) was 10000 nM. For the same compound, the IC50 (second compound 1 µM) was > 10000 nM, the IC50 (second compound 3.16 µM) was > 10000 nM and the IC50 (second compound 10 µM) was > 10000 nM. It also gave a viability, T/C [3] of 70.6%, a viability, T/C [4] of 72.4% and a viability, T/C [5] of 61%. For the same compound, the viability, T/C [6] was 56.2%, the viability, T/C (second compound 0.0316 µM, first compound 3.16 µM) was 58.5% and the viability, T/C (second compound 0.0316 µM, first compound 10 µM) was 55.8%. For the same compound, the viability, T/C [9] was 71.6%, the viability, T/C [10] was 70.2% and the viability, T/C [11] was 57.3%. It also gave a viability, T/C [12] of 54.5%, a viability, T/C (second compound 0.1 µM, first compound 3.16 µM) of 49.5% and a viability, T/C (second compound 0.1 µM, first compound 10 µM) of 51.7%. It also gave a viability, T/C [15] of 73.8%, a viability, T/C [16] of 80.5% and a viability, T/C [17] of 52.6%. It also gave a viability, T/C [18] of 54.8%, a viability, T/C (second compound 0.316 µM, first compound 3.16 µM) of 59.1% and a viability, T/C (second compound 0.316 µM, first compound 10 µM) of 53.4%. For the same compound, the viability, T/C [21] was 67.7%, the viability, T/C [22] was 65.8% and the viability, T/C [23] was 61.8%. The viability, T/C [24] was 70.3%, the viability, T/C (second compound 1 µM, first compound 3.16 µM) was 55.6% and the viability, T/C (second compound 1 µM, first compound 10 µM) was 51.7%. For the same compound, the viability, T/C [27] was 72.9%, the viability, T/C [28] was 66.6% and the viability, T/C [29] was 73.7%. The viability, T/C [30] was 64.2%, the viability, T/C (second compound 3.16 µM, first compound 3.16 µM) was 54.5% and the viability, T/C (second compound 3.16 µM, first compound 10 µM) was 63%. It also gave a viability, T/C [33] of 82.7%, a viability, T/C [34] of 67.6% and a viability, T/C [35] of 61.4%. It also gave a viability, T/C [36] of 62.1%, a viability, T/C (second compound 10 µM, first compound 3.16 µM) of 59.4% and a viability, T/C (second compound 10 µM, first compound 10 µM) of 67.2%.
